We go through seven molecules from patent US20180325923A1, “FATTY ACID ACETYLATED SALICYLATES AND THEIR USES” (Catabasis Pharmaceuticals, Inc., priority 2008, published 2018).

Read-outs that look alike come from different tables or passages of the source.

In the experiment the test system is TNFα secretion in RAW 264.7 macrophages. The experiment can be described thus: TNFα release assay in RAW 264.7 macrophages stimulated with LPS. The experiment is classed as cell-based, mouse. The source says:
The purpose of this assay is to measure the ability of small molecules to inhibit the secretion of TNFα in cultured macrophages stimulated with lipopolysaccharide (LPS). Treatment of macrophages with LPS activates inflammatory cytokine pathways primarily through the TLR4-NFκB signaling axis. […] Dexamethasone, a potent agonist of the glucocorticoid receptor is used a positive control for inhibition of TNFα release. Day 1: Seed RAW 264.7 macrophages into 96 well culture plates. Remove culture media from RAW 264.7 cell growing in a […] tissue culture flask (cells should be at […] confluence) and add 10 ml of warmed complete growth media (DMEM+10% FBS+1× pen/step). The cells are scraped into suspension using a sterile plate scraper and homogenized by pipetting up and down with a 10 ml serological pipette. The cell concentration is determined using a clinical hematoctyometer. Cells are then diluted to 150,000 cells per ml into growth media. The diluted cells are then transferred to a sterile reagent reservoir and 100 μl of cell suspension is pipetted into each well of a 96 well culture plate using a multichannel pipette (15,000 cells/well). Plates are then incubated at 37° C. under normal tissue culture growth conditions (37° C., humidified CO2 chamber). Day 2: The test compound sample plate is prepared. Test compounds are prepared in growth media. Compounds are delivered to media from 1000× stocks in 100% DMSO (e.g. for a 10 μM final concentration of test compound, deliver 2 μl of 10 mM test compound to 2 ml of media). At least 150 μl of 1× compound in media is added to 96 well sample plate. Note: the perimeter wells of the 96 well plate are not used to avoid edge effects. Twelve sample wells are prepared with media plus 0.1% DMSO (these samples will serve as the vehicle controls; LPS-stimulated and non-stimulated. 10 μM dexamethasone is used as a positive control). Culture plates are then returned to the growth incubator for 2 hours. Cells are stimulated afterwards by adding 25 μl of 50 ng/ml LPS is added to every well (except the 6 unstimulated vehicle control wells: final concentration of 10 ng/ml LPS. Plates are returned to growth incubator for 3 hours. Afterwards, 100 μl of media supernatant is removed and transferred to a 96 well v-bottom sample plate. The media supernatant plate is centrifuged for 5 minutes at 1000 rpm in a swing-bucket centrifuge, pelleting any cellular debris that may remain in supernatant. 80 μl of supernatant is removed from sample plate and transferred to a fresh v-bottom 96 well plate. Cell viability is measured using Celltiter-glo kit. By measuring cell viability, a given compound's effects on TNFα secretion can determine whether effects are due to cytotoxicity or to true inhibition of inflammatory signaling. Add 100 μl of Celltiter-glo reagent to each well of the cell culture plate and afterwards measure the luminescence signal (CPS) of the plate using the Victor 5 plate reader (0.3 second read; 60 second plate shaking prior to read). Cell viability of a given compound at a given concentration is computed as follows: Cell viability=CPS Sample/(Average CPS unstimulated controls)*100 […] Follow Invitrogen/Biosource manufacture's protocol for the mouse TNFα ELISA. Chromogen development is typically conducted for 20-30 minutes as described in the manufacturer's protocol. After addition of stop solution, measure OD 450 nm using the Victor 5 plate reader (0.1 second/well scan). Determine the TNFα secretion percent of control. The following formula is used to determine the TNFα secretion percent of control: [formula] For each test compound, TNFα secretion percent of control can be plotted as a function of compound concentration using a four parameter dose-response curve fit equation (XLFIT Model #205): fit=([…]=([…]=(y-fit) […] A sample graph showing the data obtained by using one of the Compounds of the Invention in the procedure described above in Example 6 is shown in FIG. 2.

The mark [1] stands for this setting: RAW264.7, RAW 264.7 macrophages, 10 ng/ml LPS, mouse TNFα ELISA, read-out: TNFα Secretion, IC50 μM.

With `CC/C=C\C/C=C\C/C=C\C/C=C\C/C=C\C/C=C\CCC(=O)O` [DHA, all-cis-4,7,10,13,16,19-docosahexaenoic acid, reference compound], the IC50 under setting [1] was greater than 100 µM.
Same read-out and setting: as for `Nc1ccc(O)c(C(=O)O)c1` [Compound 5-ASA, 5-aminosalicylic acid, reference compound], the figure is greater than 100 µM; as for `CC/C=C\C/C=C\C/C=C\C/C=C\C/C=C\C/C=C\CCC(=O)NCCNC(=O)c1ccccc1O` [Compound 31, N-(2-(4Z,7Z,10Z,13Z,16Z,19Z)-docosa-4,7,10,13,16,19-hexaenamidoethyl)-2-hydroxybenzamide], 15 µM.
With `CC/C=C\C/C=C\C/C=C\C/C=C\C/C=C\C/C=C\CCC(=O)NC(CC(C)C)C(=O)Oc1ccccc1C(=O)OCC` (stereo not shown) [Compound I-1, ethyl 2-(2-(4Z,7Z,10Z,13Z,16Z,19Z)-docosa-4,7,10,13,16,19-hexaenamido-4-methylpentanoyloxy)benzoate], for the setting “Mus musculus, RAW264.7, read-out: TNFα Secretion, % Inhibition”, the inhibition at 6.2 µM was 24.4%.
With `CC/C=C\C/C=C\C/C=C\C/C=C\C/C=C\C/C=C\CCC(=O)Oc1ccccc1C(=O)O` [Ia-1, 2-((4Z,7Z,10Z,13Z,16Z,19Z)-docosa-4,7,10,13,16,19-hexaenoyloxy)benzoic acid], the IC50 under setting [1] is 69.2 µM.
Still for that read-out and setting: as for `CC/C=C\C/C=C\C/C=C\C/C=C\C/C=C\C/C=C\CCC(=O)NC(CC(C)C)C(=O)Nc1ccc(O)c(C(=O)O)c1` (stereo not shown) [III-6, 5-(2-(4Z,7Z,10Z,13Z,16Z,19Z)-docosa-4,7,10,13,16,19-hexaenamido-4-methylpentanamido)-2-hydroxybenzoic acid], the figure is 65.3 µM.
Turning to `CC/C=C\C/C=C\C/C=C\C/C=C\C/C=C\C/C=C\CCC(=O)Nc1ccc(O)c(C(=O)O)c1` [III-1, 5-(4Z,7Z,10Z,13Z,16Z,19Z)-docosa-4,7,10,13,16,19-hexaenamido-2-hydroxybenzoic acid], the IC50 (Mus musculus, RAW264.7, read-out: TNFα Secretion, IC50 μM) came to 146 µM.

As usually defined, the IC50 is the midpoint of a concentration-inhibition curve. What is called inhibition is the relative decrease from the control value, in per cent.
